Source: US7288556B2, “Antiproliferative 1,2,3-thiadiazole compounds” (QLT Inc., priority 2000, dated 2007)

System: chick chorioallantoic membrane
Test: Chick chorioallantoic membrane (CAM) developmental angiogenesis assay
Format: in vivo, chicken
Settings: 50 μm
Experimental: e. Chick chorioallantoic membrane assay (CAM assay): was performed on fertilized chicken eggs and used as a test for angiogenesis inhibition.
Approximately 4 dozen fertilized eggs were sprayed with 70% ETOH and placed in a 180 egg incubator (GQF Sportsman incubator). The eggs were incubated “rounded-side down” and were fully rotated along the vertical axis every 30 minutes at 37° C. under 90% relative humidity.
After 4 days, the eggs were placed upside down (round side up) for 5-10 minutes, before a round hole approximately 3 centimeters in diameter was created above the pointed end or “air hole” of the egg using sterile blunt-ended forceps (“deshelling”). The inner membrane was also removed, and the embryo was visible through this opening. A small portion of the outer membrane was then carefully removed using fine-tipped forceps in order to expose the CAM. Sterile Parafilm was placed over the de-shelled opening to create an airtight seal. The eggs were returned to the incubator (with no rotation) for 2 days.
Viable eggs were then treated with control and inhibitor compounds. Gelfoam™ gelatin sterile sponge (Upjohn) or 1-2 mm discs of methylcellulose saturated with physiological saline, buffer or an appropriate dilution of the compounds under investigation. The Gelfoam™ fragments of methylcellulose discs were added directly to the surface of the developing CAM. Care was taken not to add the treatment directly over a large vessel. The shells were marked in 3 places to aid in stereotactic localization of the treatment sponge or disc. An average of 6 eggs were included for each experimental condition. The treated eggs were returned to the incubator for 2 days.
The eggs were then assessed for blood vessel growth inhibition. Photomicrographs for records and visual examination were made using a Nikon dissecting microscope with an attached Nikon 35-mm camera body.

Q: With NC(=O)c1nnsc1Nc1cccc2ccccc12 [KP 27301, 5-(Naphthalen-1-ylamino)-[1,2,3]thiadiazole-4-carboxylicacid amide] as the molecule, how does the “% Inhibition” value read?
A: 100%

Q: For CCNc1snnc1C(N)=O [KP 27304, 5-Ethylamino-[1,2,3]thiadiazole-4-carboxylicacid amide], which “% Inhibition” value is on record?
A: 60%

Target: T1, integrin linked kinase (ILK1), full-length recombinant GST-ILK (Homo sapiens, UniProt Q13418)
T1 construct: The target integrin linked kinase is a full-length recombinant protein expressed in sF9 insect cells by baculovirus infection; made in house; host or cells: Baculovirus; virus amplified in Sf9 cells, protein expressed in Hi5 insect cells
T1 sequence (Q13418 1-452): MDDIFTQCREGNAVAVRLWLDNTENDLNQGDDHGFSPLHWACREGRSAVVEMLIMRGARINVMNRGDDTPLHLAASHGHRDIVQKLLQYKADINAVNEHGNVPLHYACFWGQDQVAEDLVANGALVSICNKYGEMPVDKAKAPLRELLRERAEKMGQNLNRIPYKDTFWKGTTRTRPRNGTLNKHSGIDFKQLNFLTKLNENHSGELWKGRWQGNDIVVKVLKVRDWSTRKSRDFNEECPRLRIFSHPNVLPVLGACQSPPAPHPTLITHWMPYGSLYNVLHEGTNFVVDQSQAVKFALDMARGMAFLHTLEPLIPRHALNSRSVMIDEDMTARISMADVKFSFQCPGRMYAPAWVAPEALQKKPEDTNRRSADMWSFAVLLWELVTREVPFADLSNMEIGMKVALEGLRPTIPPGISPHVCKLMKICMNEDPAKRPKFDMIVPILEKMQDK
Test: Integrin linked kinase inhibition assay (radioactive phosphate incorporation, scintillation counting)
Format: biochemical
Settings: not given
Experimental: Compounds are screened using a series of disease related kinase targets, such as integrin linked kinase-1. Synthesized libraries of compounds are tested against each of the targets to find compounds that inhibit one of the targets preferentially.
Inhibition of the targets is measured by scintillation counting; the incorporation of radioactive phosphate onto a specific substrate which is immobilized onto a filter paper at the end of the assay. To provide meaningful measurements of inhibition, the assays are performed both in the absence and presence of specific and known inhibitors, and the amount of incorporated radioactivity is compared to provide a baseline measurement.
Inhibition Assay: Compounds listed in Table 1 were lyophilized and stored at −20° C. Stock solutions were made by weighing out the compounds and dissolving them in dimethyl sulfoxide (DMSO) to a standard concentration, usually 20 mM, and stored at −20° C. […] Diluted 100% DMSO was used as a negative control.
A volume of 5 μl of each compound dilution were robotically pipetted to Costar serocluster plates maintaining the same plate format. All assays consisted of the following volumes: • 5 μl diluted compound • 10 μl enzyme preparation • 5 μl substrate • 5 μl assay ATP and were then incubated 15 min at room temperature.
From each reaction, 10 μl of reaction mix was spotted onto Millipore Multiscreen-PH opaque plates and washed 2×10 min in 1% phosphoric acid. The plates were dried for at 40° C. for 30 min, then the substrate phosphate complexes were quantitated by scintillation counting. These Millipore plates are in a 96 well format with immobilized P81 phosphocellulose membranes. Both the phosphorylated and non-phosphorylated form of the substrate bind to the membrane while ATP (unincorporated phosphate) is removed in the subsequent wash steps.
Integrin Linked Kinase: The target integrin linked kinase is a full-length recombinant protein expressed in sF9 insect cells by baculovirus infection. The ILK1 substrate is […]-amide.
Recombinant ILK protein was expressed using cultured insect cells and a baculovirus expression system.
A large scale plasmid preparation of the resulting transfer construct was made using a Qiagen Plasmid Midi Kit. This ILK transfer construct was then co-transfected with BaculoGold DNA (Pharmingen) into Sf9 insect cells (Invitrogen) and a high titre preparation of GST-ILK recombinant baculovirus was produced by amplification in Sf9 cells. Liter scale expression of GST-ILK recombinant protein was done in 1000 ml spinner flasks (Bellco) by infection of Hi5 insect cells (Invitrogen) grown in Ex-Cell 400 Serum Free Media (JRH Biosciences) at a multiplicity of infection of approximately 5. The cells were harvested three days after infection and lysed in Hypotonic Lysis Buffer (HLB; 10 mM imidazole, 5 mM EDTA, 0.1% β-mercaptoethanol, 10 ug/ml PMSF, 1 mM benzamidine) by sonication. The lysate was centrifuged at 10,000×g for 20 min and the supernatant was discarded. The pellet was washed twice in HLB and then washed twice in High Salt Buffer (HSB; 500 mM NaCl, 10 mM imidazole, 5 mM EDTA, 0.1% β-mercaptoethanol, 10 ug/ml PMSF, 1 mM benzamidine). The pellet was then resuspended in DNAse-ATP Buffer (DAB; 10 mM MgCl2, 1 mM MnCl2, β-methyl aspartic acid, 2 mM NaF, 0.55 mg/ml ATP, 1 ug/ml DNAse I, 1% NP-40, 10 mM imidazole, 5 mM EDTA, 0.1% β-mercaptoethanol, 10 ug/ml PMSF, 1 mM benzamidine) and stirred for 30 min at room temperature, and then centrifuged at 10,000×g for 20 min. The pellet was resuspended in High Salt Detergent Buffer (HDB; 1% NP-40, 1% Triton X-100, 500 mM NaCl, 10 mM imidazole, 5 mM EDTA, 0.1% β-mercaptoethanol, 10 ug/ml PMSF, 1 mM benzamidine), stirred for 30 min at room temperature, and then centrufuged at 10,000×g for 20 min. The pellet was then washed once in each of HDB, HSB, and HLB, centrifuging at 10,000×g each time. Finally, the pellet was resuspended in HLB.

Q: For NC(=O)c1nnsc1Nc1ccc(Br)cc1 [KP 27296, 5-(4-Bromophenylamino)-[1,2,3]thiadiazole-4-carboxylicacid amide], which IC50 is on record?
A: > 20 µM

Q: With COc1ccc(Nc2snnc2C(N)=O)cc1 [KP 27297, 5-(4-Methoxyphenylamino)-[1,2,3]thiadiazole-4-carboxylicacid amide] as the molecule, how does the IC50 read?
A: > 20 µM

Q: With CCOC(=O)Nc1snnc1C(N)=O [KP 27298, (4-Carbamoyl-[1,2,3]thiadiazol-5-yl)-carbamicacid ethyl ester] as the molecule, how does the IC50 read?
A: > 20 µM

Q: For NC(=O)c1nnsc1NC12CC3CC(CC(C3)C1)C2 [KP 27299, 5-(Adamantan-1-ylamino)-[1,2,3]thiadiazole-4-carboxylicacid amide], which IC50 is on record?
A: > 20 µM

Q: For NC(=O)c1nnsc1NC1CCCCC1 [KP 27300, 5-Cyclohexylamino-[1,2,3]thiadiazole-4-carboxylicacid amide], which IC50 is on record?
A: > 20 µM

Q: With NC(=O)c1nnsc1NCc1ccccc1 [KP 27302, 5-Benzylamino-[1,2,3]thiadiazole-4-carboxylicacid amide] as the molecule, how does the IC50 read?
A: > 20 µM

Q: With NC(=O)c1nnsc1NC(=O)c1ccccc1 [KP 27303, 5-Benzoylamino-[1,2,3]thiadiazole-4-carboxylicacid amide] as the molecule, how does the IC50 read?
A: > 20 µM

Q: With CCNc1snnc1C(N)=O [KP 27304, 5-Ethylamino-[1,2,3]thiadiazole-4-carboxylicacid amide] as the molecule, how does the IC50 read?
A: > 20 µM

Q: Which IC50 does the source give for CCCCCCNc1snnc1C(N)=O [KP 27305, 5-Hexylamino-[1,2,3]thiadiazole-4-carboxylicacid amide] here?
A: > 20 µM

Q: For CN(c1ccccc1)c1snnc1C(N)=O [KP 27420, 5-(Methylphenylamino)-[1,2,3]thiadiazole-4-carboxylicacid amide], which IC50 is on record?
A: > 20 µM

Q: Which IC50 does the source give for CC(=O)NC(=O)c1nnsc1Nc1ccccc1 [KP 27421, 5-Phenylamino-[1,2,3]thiadiazole-4-carboxylicacid acetylamide] here?
A: > 20 µM

Q: For NCc1nnsc1Nc1ccccc1 [KP 27422, (4-Aminomethyl-[1,2,3]thiadiazol-5-yl)phenylamine], which IC50 is on record?
A: > 20 µM

Q: With O=C(O)c1nnsc1Nc1ccccc1 [KP-27271, 5-Phenylamino-[1,2,3]thiadiazole-4-carboxylicacid] as the molecule, how does the IC50 read?
A: > 20 µM

System: not given
Test: not given
Settings: not given

Q: For CN(c1ccccc1)c1snnc1C(N)=O [KP 27420, 5-(Methylphenylamino)-[1,2,3]thiadiazole-4-carboxylicacid amide], which melting point is on record?
A: 194 to 196 °C
